Consider 6 compounds from patent US10421723B2, “2,3-diacylated, 2- and 3-mono-acylated alkylated imino sugars exhibiting glucosidase inhibition and their method of use” (priority 2016, dated 2019).

SMILES strings stand for the structures.

One series deals with target viruses. Conditions: cited from earlier work.
Series [1] is described as follows: Stability and conversion in simulated gastric fluid. It is filed as in vitro ADME. The conditions noted are these: 4 h, 37° C. The procedure:
The stability of exemplary compounds of the present invention and their conversion to their active derivatives in simulated gastric fluid is evaluated. The working solutions of test compounds and control compound erythromycin were prepared in DMSO at the concentration of 500 μM. 2 μL of the working solution and 198 μL of simulated gastric fluids were added into centrifuge tubes to achieve a final concentration of […] incubated at 37° C. water bath with shaking at approximately 60 rpm. One of the centrifuge tubes was taken at designated time points including 0, 30, 60, 90 and 120 minutes. The assay was performed in duplicate. The reaction was stopped by adding 5 volumes of cold quench solution (acetonitrile containing internal standards (IS, 100 nM Alprazolam, 500 nM Labetalol and 2 μM Ketoprofen)) to the spiked simulated gastric fluids samples at the appointed time points. Another time 0 samples of parent compound were also prepared, and they were used to calculate the conversion percentages of prodrugs to parent compound (used as T0-2). Samples were vortexed for 2 minutes and centrifuged at 20,000 g for 15 minutes at 4° C. to precipitate protein. And then 50 μL of the supernatant was transferred to a new 96-well plate with 100 μL quench solution and 100 μL water for LC-MS/MS analysis.

Series [2] in a line: Stability and conversion in simulated intestinal fluids. It is filed as in vitro ADME. The conditions noted are these: 4 h, 5 μM, 37° C. The procedure:
The stability of exemplary compounds of the present invention and their conversion to active derivatives in simulated intestinal fluids is evaluated. The working solutions of test compounds and control compound chlorambucil were prepared in DMSO at the concentration of 500 μM. 2 μL of the working solution and 198 μL of simulated intestinal fluids were added into centrifuge tubes to achieve a final concentration of 5 μM, and incubated at 37° C. water bath with shaking at approximately 60 rpm. One of the centrifuge tubes was taken at designated time points including 0, 1, 2, 3 and 4 hours. The assay was performed in duplicate. The reaction was stopped by adding 5 volumes of cold quench solution (acetonitrile containing internal standards (IS, 100 nM Alprazolam, 500 nM Labetalol and 2 μM Ketoprofen)) to the spiked simulated intestinal fluids samples at the appointed time points. Another time 0 samples of parent compound were also prepared, and they were used to calculate the conversion percentages of prodrugs to parent compound (used as T0-2). Samples were vortexed for 2 minutes and centrifuged at 20,000 g for 15 minutes at 4° C. to precipitate protein. And then 50 μL of the supernatant was transferred to a new 96-well plate with 100 μL quench solution and 100 μL water for LC-MS/MS analysis.

For `CCCC(=O)O[C@H]1CN2CC[C@H](O)[C@@H]2[C@@H](O)[C@@H]1O` [Celgosivir], in the series on target viruses, the “concentrations to achieve EC50 values in tissue culture against their target viruses” value is “near millimolar”.
In the case of `CCCCN1C[C@H](O)[C@@H](O)[C@H](O)[C@H]1CO` [NBDNJ, N-butyl-DNJ], in the series on target viruses, the “concentrations to achieve EC50 values in tissue culture against their target viruses” value is recorded as “near millimolar”.
Turning to `CCCCOC(=O)OC1CN(CCCCCCN(C(=O)NC(C)(C)C)C2CCCCC2)C(CO)C(O)C1O` (stereo not shown) [XXVIII(a)], in series [1], the “Stability in Gastric fluids, Remaining” value is 98.1%. Further, the “Stability in Intestinal Fluid, Remaining” value in series [2] was 62.7%.
The corresponding values for `CCCCOC(=O)OC1CN(CCCCCCN(C(=O)NC(C)(C)C)C2CCCCC2)C(CO)C(O)C1OC(=O)OCCCC` (stereo not shown) [XXVII(a)] are 93% and 65.7%.
The corresponding values for `CC(C)COC(=O)OC1CN(CCCCCCN(C(=O)NC(C)(C)C)C2CCCCC2)C(CO)C(O)C1O` (stereo not shown) [XXVIII(b)] are 89.2% and 70.9%.
The corresponding values for `CC(NC(=O)OC(C)(C)C)C(=O)OC1C(O)CN(CCCCCCN(C(=O)NC(C)(C)C)C2CCCCC2)C(CO)C1O` (stereo not shown) [XXX(a)] are 81.1% and 30.7%.
